# Experimental data reported in PMC5218480 (PLoS ONE, 2017).
# System: MV-4-11 cells
# Experiment: Gene expression microarray analysis (Affymetrix PrimeView) and GSEA
# Format: cell-based, human
# Parameters: RFU PODN (11730768_x_at) / Fold change /veh PODN (11730768_x_at) / RFU LINC00158 (11744669_a_at) / Fold change /veh LINC00158 (11744669_a_at) / RFU DUSP10 (11751237_a_at) / Fold change /veh DUSP10 (11751237_a_at) / RFU ID3 (11757404_x_at) / Fold change /veh ID3 (11757404_x_at) / RFU PLEKHG5 (11737974_s_at) / Fold change /veh PLEKHG5 (11737974_s_at) / RFU LRRC4B (11730491_at) / Fold change /veh LRRC4B (11730491_at) / RFU GIMAP4 (11747438_a_at) / Fold change /veh GIMAP4 (11747438_a_at) / RFU KRT8 (11758183_x_at) / Fold change /veh KRT8 (11758183_x_at) / RFU CNN1 (11734310_a_at) / Fold change /veh CNN1 (11734310_a_at) / RFU VPS37D (11726825_at) / Fold change /veh VPS37D (11726825_at) / RFU C10orf10 (11716522_x_at) / Fold change /veh C10orf10 (11716522_x_at) / RFU KIR2DL2 /// KIR2DL4 /// KIR2DL5A /// KIR2DL5B /// KIR2DS1 /// KIR2DS2 /// KIR2DS3 /// KIR2DS4 /// KIR3DL3 /// KIR3DL3 /// KIR3DS1 (11738374_at) / Fold change /veh KIR2DL2 /// KIR2DL4 /// KIR2DL5A /// KIR2DL5B /// KIR2DS1 /// KIR2DS2 /// KIR2DS3 /// KIR2DS4 /// KIR3DL3 /// KIR3DL3 /// KIR3DS1 (11738374_at) / RFU C1QL1 (11718748_at) / Fold change /veh C1QL1 (11718748_at) / RFU TMPRSS4 (11747572_a_at) / Fold change /veh TMPRSS4 (11747572_a_at) / RFU HAMP (11756126_x_at) / Fold change /veh HAMP (11756126_x_at) / RFU RNFT2 (11725882_a_at) / Fold change /veh RNFT2 (11725882_a_at) / RFU NR4A2 (11747474_a_at) / Fold change /veh NR4A2 (11747474_a_at) / RFU ABCC12 (11746883_a_at) / Fold change /veh ABCC12 (11746883_a_at) / RFU TMEM136 (11760407_x_at) / Fold change /veh TMEM136 (11760407_x_at) / RFU CLDN22 /// WWC2 (11732394_at) / Fold change /veh CLDN22 /// WWC2 (11732394_at) / RFU HLA-DPB1 (11760878_x_at) / Fold change /veh HLA-DPB1 (11760878_x_at) / RFU SPINT1 (11716480_a_at) / Fold change /veh SPINT1 (11716480_a_at) / RFU GAP43 (11754022_s_at) / Fold change /veh GAP43 (11754022_s_at) / RFU A4GNT (11735810_at) / Fold change /veh A4GNT (11735810_at) / RFU PRB3 (11715151_x_at) / Fold change /veh PRB3 (11715151_x_at) / RFU TUBB4B (11761932_at) / Fold change /veh TUBB4B (11761932_at) / RFU CAPN14 (11732068_a_at) / Fold change /veh CAPN14 (11732068_a_at) / RFU TMCC2 (11721928_a_at) / Fold change /veh TMCC2 (11721928_a_at) / RFU IRGQ (11745062_a_at) / Fold change /veh IRGQ (11745062_a_at) / RFU FAM174B (11720279_a_at) / Fold change /veh FAM174B (11720279_a_at) / RFU TMPRSS4 (11748680_a_at) / Fold change /veh TMPRSS4 (11748680_a_at) / RFU FAM212B (11763350_a_at) / Fold change /veh FAM212B (11763350_a_at) / RFU PLEKHG5 (11743358_a_at) / Fold change /veh PLEKHG5 (11743358_a_at) / RFU ZSCAN30 (11745921_a_at) / Fold change /veh ZSCAN30 (11745921_a_at) / RFU CMKLR1 (11741424_a_at) / Fold change /veh CMKLR1 (11741424_a_at) / RFU LOC101060620 /// MAPK8IP1 (11723275_at) / Fold change /veh LOC101060620 /// MAPK8IP1 (11723275_at) / RFU SPTSSB (11747773_x_at) / Fold change /veh SPTSSB (11747773_x_at) / RFU PRSS12 (11739890_at) / Fold change /veh PRSS12 (11739890_at) / RFU BIN1 (11741810_x_at) / Fold change /veh BIN1 (11741810_x_at) / RFU WNT11 (11732464_a_at) / Fold change /veh WNT11 (11732464_a_at) / RFU C10orf10 (11716521_a_at) / Fold change /veh C10orf10 (11716521_a_at) / RFU C5orf56 (11738089_at) / Fold change /veh C5orf56 (11738089_at) / RFU CYB561 (11721691_x_at) / Fold change /veh CYB561 (11721691_x_at) / RFU ANKRD19P (11752326_a_at) / Fold change /veh ANKRD19P (11752326_a_at) / RFU OR2T12 /// OR2T33 /// OR2T8 (11738714_s_at) / Fold change /veh OR2T12 /// OR2T33 /// OR2T8 (11738714_s_at) / RFU VCAN (11748164_a_at) / Fold change /veh VCAN (11748164_a_at) / RFU JSRP1 (11732532_at) / Fold change /veh JSRP1 (11732532_at) / RFU KRTAP10-11 (11738290_x_at) / Fold change /veh KRTAP10-11 (11738290_x_at) / RFU MYO3A (11730013_a_at) / Fold change /veh MYO3A (11730013_a_at) / RFU EBF3 (11725865_a_at) / Fold change /veh EBF3 (11725865_a_at) / RFU CAMK2N1 (11719241_x_at) / Fold change /veh CAMK2N1 (11719241_x_at) / RFU C5orf56 (11738088_a_at) / Fold change /veh C5orf56 (11738088_a_at) / RFU OLFML3 (11715873_a_at) / Fold change /veh OLFML3 (11715873_a_at) / RFU LOC100653217 /// NTM (11731650_a_at) / Fold change /veh LOC100653217 /// NTM (11731650_a_at) / RFU MAPK11 (11762145_a_at) / Fold change /veh MAPK11 (11762145_a_at) / RFU FIZ1 (11724087_x_at) / Fold change /veh FIZ1 (11724087_x_at) / RFU OASL (11726364_x_at) / Fold change /veh OASL (11726364_x_at) / RFU SOX15 (11748057_x_at) / Fold change /veh SOX15 (11748057_x_at) / RFU CD79A (11719716_a_at) / Fold change /veh CD79A (11719716_a_at) / RFU HIST1H1D (11736915_at) / Fold change /veh HIST1H1D (11736915_at) / RFU CASKIN2 (11723855_a_at) / Fold change /veh CASKIN2 (11723855_a_at) / RFU LOC730098 (11760151_x_at) / Fold change /veh LOC730098 (11760151_x_at) / RFU OR4N2 (11742367_at) / Fold change /veh OR4N2 (11742367_at) / RFU PRRT2 (11749266_a_at) / Fold change /veh PRRT2 (11749266_a_at) / RFU SNX32 (11753110_a_at) / Fold change /veh SNX32 (11753110_a_at) / RFU CDHR5 (11726645_a_at) / Fold change /veh CDHR5 (11726645_a_at) / RFU RCAN1 (11760418_a_at) / Fold change /veh RCAN1 (11760418_a_at) / RFU FAM167A (11723789_a_at) / Fold change /veh FAM167A (11723789_a_at) / RFU FAM26E (11764081_at) / Fold change /veh FAM26E (11764081_at) / RFU ISYNA1 (11749810_s_at) / Fold change /veh ISYNA1 (11749810_s_at) / RFU ACY1 (11761880_at) / Fold change /veh ACY1 (11761880_at) / RFU 11764098_at / Fold change /veh 11764098_at / RFU SAMD14 (11745864_x_at) / Fold change /veh SAMD14 (11745864_x_at) / RFU NPB (11741838_a_at) / Fold change /veh NPB (11741838_a_at) / RFU TMPRSS6 (11731388_a_at) / Fold change /veh TMPRSS6 (11731388_a_at) / RFU KRTAP10-2 (11738614_at) / Fold change /veh KRTAP10-2 (11738614_at) / RFU ARHGAP8 /// PRR5-ARHGAP8 (11727945_x_at) / Fold change /veh ARHGAP8 /// PRR5-ARHGAP8 (11727945_x_at) / RFU KRTAP5-7 /// NADSYN1 (11734609_at) / Fold change /veh KRTAP5-7 /// NADSYN1 (11734609_at) / RFU RASL12 (11751679_a_at) / Fold change /veh RASL12 (11751679_a_at) / RFU CDKN2B (11736163_a_at) / Fold change /veh CDKN2B (11736163_a_at) / RFU PRF1 (11729649_at) / Fold change /veh PRF1 (11729649_at) / RFU, ZNF638 /// ZNF638-IT1 / Fold change vs veh, ZNF638 /// ZNF638-IT1 / RFU, PANK3 / Fold change vs veh, PANK3 / RFU, SH3YL1 / Fold change vs veh, SH3YL1 / RFU, ZEB2 / Fold change vs veh, ZEB2 / RFU, NRIP1 / Fold change vs veh, NRIP1 / RFU, PTTG1IP / Fold change vs veh, PTTG1IP / RFU, CAPN2 / Fold change vs veh, CAPN2 / RFU, MED14 / Fold change vs veh, MED14 / RFU, SNORA58 / Fold change vs veh, SNORA58 / RFU, C1orf63 / Fold change vs veh, C1orf63 / RFU, LRRFIP1 / Fold change vs veh, LRRFIP1 / RFU, NDUFAF7 / Fold change vs veh, NDUFAF7 / RFU, SLC12A2 / Fold change vs veh, SLC12A2 / RFU, IBTK / Fold change vs veh, IBTK / RFU, ESF1 / Fold change vs veh, ESF1 / Fold change vs veh, TMEM50B / RFU, TAOK1 / Fold change vs veh, TAOK1 / RFU, ACBD3 / Fold change vs veh, ACBD3 / RFU, TMA16 / Fold change vs veh, TMA16 / RFU, RWDD3 / Fold change vs veh, RWDD3 / RFU, BCAT1 / Fold change vs veh, BCAT1 / RFU, EDEM3 / Fold change vs veh, EDEM3 / RFU, TMEM33 / Fold change vs veh, TMEM33 / RFU, WDR75 / Fold change vs veh, WDR75 / RFU, AHCTF1 / Fold change vs veh, AHCTF1 / RFU, TFRC / Fold change vs veh, TFRC / RFU, ZDHHC17 / Fold change vs veh, ZDHHC17 / RFU, NOM1 / Fold change vs veh, NOM1 / RFU, ARL8B / Fold change vs veh, ARL8B / RFU, ZBTB11 / Fold change vs veh, ZBTB11 / RFU, TAMM41 / Fold change vs veh, TAMM41 / RFU, KIAA1704 /// LOC100996395 / Fold change vs veh, KIAA1704 /// LOC100996395 / RFU, ING1 / Fold change vs veh, ING1 / RFU, TRMT61B / Fold change vs veh, TRMT61B / RFU, FUBP3 / Fold change vs veh, FUBP3 / RFU, TP53 / Fold change vs veh, TP53 / RFU, TNKS2 / Fold change vs veh, TNKS2 / RFU, ZFP14 / Fold change vs veh, ZFP14 / RFU, ACTR2 / Fold change vs veh, ACTR2 / RFU, PPP3R1 / Fold change vs veh, PPP3R1 / RFU, PIK3R1 / Fold change vs veh, PIK3R1 / RFU, HNRNPA1 / Fold change vs veh, HNRNPA1 / RFU, RNF170 / Fold change vs veh, RNF170 / RFU, ZNF28 / Fold change vs veh, ZNF28 / RFU, RNGTT / Fold change vs veh, RNGTT / RFU, OGT / Fold change vs veh, OGT / RFU, BRD1 / Fold change vs veh, BRD1 / RFU, MARS / Fold change vs veh, MARS / RFU, ZNF655 / Fold change vs veh, ZNF655 / RFU, FAHD1 / Fold change vs veh, FAHD1 / RFU, BDP1 / Fold change vs veh, BDP1 / RFU, LRRCC1 / Fold change vs veh, LRRCC1 / RFU, ARID1A / Fold change vs veh, ARID1A / RFU, ZNF146 / Fold change vs veh, ZNF146 / RFU, ZNF330 / Fold change vs veh, ZNF330 / RFU, GPN3 / Fold change vs veh, GPN3 / RFU, C9orf123 / Fold change vs veh, C9orf123 / RFU, N4BP2L2 / Fold change vs veh, N4BP2L2 / RFU, ARFIP1 / Fold change vs veh, ARFIP1 / RFU, FAM179B / Fold change vs veh, FAM179B / RFU, BCL10 / Fold change vs veh, BCL10 / RFU, UHRF1BP1L / Fold change vs veh, UHRF1BP1L / RFU, BET1 / Fold change vs veh, BET1 / RFU, CNOT2 / Fold change vs veh, CNOT2 / RFU, ZNF268 / Fold change vs veh, ZNF268 / Fold change vs veh, ZNF507 / RFU, DGCR2 / Fold change vs veh, DGCR2 / RFU, WDSUB1 / Fold change vs veh, WDSUB1 / Fold change vs veh, HSP90B1 /// MIR3652 / RFU, ADSS / Fold change vs veh, ADSS / RFU, GK / Fold change vs veh, GK / RFU, ZNF148 / Fold change vs veh, ZNF148 / RFU, TAF9 / Fold change vs veh, TAF9 / RFU, SLC1A5 / Fold change vs veh, SLC1A5 / RFU, SLMO2 / Fold change vs veh, SLMO2 / RFU, ABCC4 / Fold change vs veh, ABCC4 / RFU, LOC101060439 /// RAP1B / Fold change vs veh, LOC101060439 /// RAP1B / RFU, RFX7 / Fold change vs veh, RFX7 / RFU, GTPBP10 / Fold change vs veh, GTPBP10 / RFU, CNEP1R1 / Fold change vs veh, CNEP1R1 / RFU, BIVM-ERCC5 /// ERCC5 / Fold change vs veh, BIVM-ERCC5 /// ERCC5 / RFU, ILF3 / Fold change vs veh, ILF3 / RFU 11762660_at / Fold change /veh 11762660_at / RFU VCAN (11757783_s_at) / Fold change /veh VCAN (11757783_s_at) / RFU DDX43 (11728927_at) / Fold change /veh DDX43 (11728927_at) / RFU KRT8 (11758188_x_at) / Fold change /veh KRT8 (11758188_x_at) / RFU NKD1 (11759106_at) / Fold change /veh NKD1 (11759106_at) / RFU SRD5A1 (11742802_a_at) / Fold change /veh SRD5A1 (11742802_a_at) / RFU TPSAB1 /// TPSB2 (11721975_s_at) / Fold change /veh TPSAB1 /// TPSB2 (11721975_s_at) / RFU GSTM3 (11746129_a_at) / Fold change /veh GSTM3 (11746129_a_at) / RFU IL23R (11737362_x_at) / Fold change /veh IL23R (11737362_x_at) / RFU TMEM51 (11727254_a_at) / Fold change /veh TMEM51 (11727254_a_at) / RFU PIWIL2 (11732686_x_at) / Fold change /veh PIWIL2 (11732686_x_at) / RFU ORM1 (11744905_x_at) / Fold change /veh ORM1 (11744905_x_at) / RFU CCDC152 (11743942_at) / Fold change /veh CCDC152 (11743942_at) / RFU ECM1 (11717891_a_at) / Fold change /veh ECM1 (11717891_a_at) / RFU IL23R (11748794_a_at) / Fold change /veh IL23R (11748794_a_at) / RFU TNFAIP8L3 (11732012_x_at) / Fold change /veh TNFAIP8L3 (11732012_x_at) / RFU MBOAT4 (11741988_at) / Fold change /veh MBOAT4 (11741988_at) / RFU 11764193_at / Fold change /veh 11764193_at / RFU TMEM53 (11763286_at) / Fold change /veh TMEM53 (11763286_at) / RFU MAGEB2 (11727129_at) / Fold change /veh MAGEB2 (11727129_at) / RFU TMEM200A (11744735_a_at) / Fold change /veh TMEM200A (11744735_a_at) / RFU CCDC152 (11751479_a_at) / Fold change /veh CCDC152 (11751479_a_at) / RFU FAM211A (11726209_a_at) / Fold change /veh FAM211A (11726209_a_at) / RFU RGS16 (11746705_a_at) / Fold change /veh RGS16 (11746705_a_at) / RFU VCAN (11755009_s_at) / Fold change /veh VCAN (11755009_s_at) / RFU RHOB (11743442_s_at) / Fold change /veh RHOB (11743442_s_at) / RFU RGS16 (11720943_a_at) / Fold change /veh RGS16 (11720943_a_at) / RFU RGS16 (11720944_at) / Fold change /veh RGS16 (11720944_at) / RFU, VPS4B / Fold change vs veh, VPS4B / RFU, CREB1 / Fold change vs veh, CREB1 / RFU, DNAJC13 / Fold change vs veh, DNAJC13 / RFU, GNAQ / Fold change vs veh, GNAQ / RFU, CDK5R1 / Fold change vs veh, CDK5R1 / RFU, ZRANB3 / Fold change vs veh, ZRANB3 / RFU, CUL4A / Fold change vs veh, CUL4A / RFU, CCNY / Fold change vs veh, CCNY / RFU, UFL1 / Fold change vs veh, UFL1 / RFU, COG3 / Fold change vs veh, COG3 / RFU, DIAPH2 / Fold change vs veh, DIAPH2 / RFU, SKA2 / Fold change vs veh, SKA2 / RFU, AFF3 / Fold change vs veh, AFF3 / RFU, LMF1 / Fold change vs veh, LMF1 / RFU, IPO11 / Fold change vs veh, IPO11 / RFU, DFFB / Fold change vs veh, DFFB / RFU, FOXP1 / Fold change vs veh, FOXP1 / RFU, CARD8 / Fold change vs veh, CARD8 / RFU, STRN3 / Fold change vs veh, STRN3 / RFU, ADK / Fold change vs veh, ADK / RFU, RASSF2 / Fold change vs veh, RASSF2 / RFU, WIPF1 / Fold change vs veh, WIPF1 / RFU, LARP1B / Fold change vs veh, LARP1B / RFU, RASA1 / Fold change vs veh, RASA1 / RFU, RB1 / Fold change vs veh, RB1 / RFU, PPFIA1 / Fold change vs veh, PPFIA1 / RFU, MAT2A / Fold change vs veh, MAT2A / RFU, CCT5 / Fold change vs veh, CCT5 / RFU, WDR92 / Fold change vs veh, WDR92 / RFU, CUX1 / Fold change vs veh, CUX1 / RFU, TTC7A / Fold change vs veh, TTC7A / RFU, TMEM135 / Fold change vs veh, TMEM135 / RFU, DEPTOR / Fold change vs veh, DEPTOR / RFU, CPM / Fold change vs veh, CPM / RFU, DNAJB6 / Fold change vs veh, DNAJB6 / RFU, CACNA2D3 / Fold change vs veh, CACNA2D3 / RFU, DTX4 / Fold change vs veh, DTX4 / RFU, TFCP2 / Fold change vs veh, TFCP2 / RFU, GMCL1 /// GMCL1P1 / Fold change vs veh, GMCL1 /// GMCL1P1 / RFU, AEBP2 / Fold change vs veh, AEBP2 / RFU, SNHG1 /// SNORD22 /// SNORD25 /// SNORD26 /// SNORD27 /// SNORD28 /// SNORD29 /// SNORD31 / Fold change vs veh, SNHG1 /// SNORD22 /// SNORD25 /// SNORD26 /// SNORD27 /// SNORD28 /// SNORD29 /// SNORD31 / Fold change (Aza/veh), C12orf56 (ProbeSet 11735607_a_at) / Fold change (ACY-1035/veh), C12orf56 (ProbeSet 11735607_a_at) / Fold change (Aza/veh), FGFR1OP (ProbeSet 11751329_s_at) / Fold change (ACY-1035/veh), FGFR1OP (ProbeSet 11751329_s_at) / Fold change (Aza/veh), VPS36 (ProbeSet 11739960_a_at) / Fold change (ACY-1035/veh), VPS36 (ProbeSet 11739960_a_at) / RFU SYPL1 (11715823_x_at) / Fold change /veh SYPL1 (11715823_x_at) / RFU IGFBP7 (11715501_s_at) / Fold change /veh IGFBP7 (11715501_s_at) / RFU REEP3 (11722064_at) / Fold change /veh REEP3 (11722064_at) / RFU IGLL1 (11728026_x_at) / Fold change /veh IGLL1 (11728026_x_at): dose or concentration left out as unconfirmed
# Details: MV-4-11 cells, 48 hours
structure (smiles),measurement,value
Nc1ncn([C@@H]2O[C@H](CO)[C@@H](O)[C@H]2O)c(=O)n1 [azacitidine],RFU ABCC12 (11746883_a_at),6.52 RFU
